Measurements as given in patent US5470877A, “Uses of perillic acid methyl ester” (Wisconsin Alumni Research Foundation, priority 1994, dated 1995).
Like-named read-outs stand apart in the source and are kept apart here.

Columns and labels:
[1] = Chronic dietary toxicity in rats
[2] = tested on: CoQ9 and cholesterol synthesis; test: Mevalonate metabolism: CoQ9 and cholesterol synthesis in NIH3T3 cells; format: cell-based, mouse; details: for activity at 1000 µM: Mus musculus, NIH3T3, 3 h, average of four experiments ± SD
Method: Analysis of Mevalonate Metabolism. NIH3T3 cells were grown in Dulbecco's modified Eagle's medium supplemented with 10% calf serum. […] The cells were then trypsinized, washed and resuspended in phosphate-buffered saline. The protein concentrations were determined using a bicinchoninic acid protein assay (Shihabi, et al, Ann. Clin. Lab. Sci. 18:235-239, 1988). Samples containing equal amount of protein were spotted on TLC plates with or without acetone extraction (Maziere, et al, J. Biochem. Biophys. Methods 14:267-272, 1987.) The TLC plates were developed with hexane/diethyl ether/acetic acid (70:30:2, v/v) (Maziere, et al, Supra). Dry plates were analyzed for radioactivity using a phosphorimager (Molecular Dynamics).
Labeling Cells with [^14 C(U)] Tyrosine. NIH3T3 cells were treated with 30 μM lovastatin for 18 hours and then incubated in fresh tyrosine deficient minimum essential medium (supplemented with 10% dialyzed fetal bovine serum) containing 400 μM mevalonic acid lactone (Sigma) and 14 μCi/ml [^14 C(U)] tyrosine (500 mCi/mmol) for 3 hours in the absence or presence of 1 mM perillyl alcohol. Cells were harvested and lipids were analyzed as described above.
HPLC Analysis of Unsaponifiable Lipids. Cells were labeled with [2-^14 C] mevalonolactone as described above and then were saponified as described by Popjak et al, J. Lipid Res, 26:831-841, 1985. Unsaponifiable lipids were extracted with petroleum ether, dried and dissolved in chloroform methanol (1:1, v/v). Reverse phase HPLC using a Bio-Rad ODS-5S (25 cm×4 mm) column fitted with a Sigma hypersil ODS guard column was run isocratically with methanol/acetonitrile/water (72.5:22.5:5, v/v) at a flow rate of 0.8 ml/min. The effluent was monitored at 210 nm, the fractions were collected, and radioactivities were determined with a Beckman LS 6000IC Scintillation Counter.

[3] = tested on: DMBA-induced rat mammary carcinomas; test: Regression of DMBA-induced mammary carcinomas, pair-feeding study; format: in vivo, Wistar-Furth rat; details: for Time to Regress (wks): primary carcinoma, footnote: Kaplan-Meier estimate of time when 25% regressed
Method: We used Wistar-Furth female rats for in vivo studies. Wistar-Furth female rats were obtained from Harlan Sprague-Dawley, Inc., (Madison, Wis.). All rats, arriving at 43-48 days of age, were housed at four rats per cage in wire-bottom metal cages and all were maintained with a light/dark cycle of 12 hours. Rats were provided Teklad Lab blox chow and acidified water ad libitum.
After one week of acclimation, the carcinogen DMBA was administered to the rats, which were 50-55 days old at this point. The DMBA was dissolved in a stock solution of 20 mg DMBA/ml sesame oil, heated and allowed to cool to room temperature before administration. DMBA (Eastman Kodak, Rochester, N.Y.) was given as a single gastric intubation of 50 mg DMBA/kg rat body weight.
In the pair-feeding study, a group of 70 mammals was treated with DMBA. Beginning four weeks post carcinogen administration, mammals were weighed and palpated weekly. Upon palpation of the first mammary carcinoma (diameter≥3 mm), mammals were randomly assigned to control or 2.5% (w/w) perillyl alcohol diet and pair-fed.
Perillyl alcohol (>96% pure by GC analysis, Aldrich, Milwaukee, Wis.) and Teklad 4% mouse/rat diet meal were thoroughly mixed and stored at -20° C. Fresh diets were made every 7-10 days. All mammals were provided fresh diet daily to minimize evaporation of the monoterpenes. For pair-feeding, the quantity of diet consumed by the monoterpene-fed mammals was measured every 24 hours and the assigned partner was pair-fed accordingly.
In the pair-feeding study, all palpable mammary carcinomas were classified as either "primary" tumors (i.e, the first tumor(s) palpated with a minimum diameter of 3 mm) or "secondary" tumors (i.e. a palpable tumor arising after initial diet assignment). At diet assignment, some mammals had more than one primary tumor. All carcinogen-exposed mammals not bearing a first palpable tumor by week 15 post-carcinogen were removed from the experiment. Complete regression of a tumor was defined as non-palpability for a minimum of three consecutive weeks. All mammals in the pair-feeding study were followed for a minimum of 10 weeks post-diet assignment for tumor growth or regression at primary tumor sites and all other mammary glands. The rats were necropsied if moribund. Complete necropsies were performed on all rats at the termination of the study. Greater than 95% of tumors remaining at the autopsy date were diagnosed as mammary carcinomas based on gross and histopathological criteria.

[4] = Tolerability in nude mice (National Cancer Institute); format: in vivo
Method: In an extension of our work, the National Cancer Institute has studied the effect of perillyl alcohol doses in nude mice using an oral bid ×14 day schedule. […] Perillyl alcohol was also administered in PEG400 at the same dose levels.

[5] = 10% limonene diet or 2.5% POH diet

C=C(C)[C@@H]1CC=C(CO)CC1 [perillyl alcohol]
weight change ([1]; 0.5% POH diet, chronic): very small weight loss followed by weight gain | weight change ([1]; 1.0% POH diet, chronic): very small weight loss followed by weight gain | tolerability ([1]; 2.0% POH diet, chronic): tolerated with weight loss followed by weight gain | tolerability ([1]; 2.5% POH diet, chronic): tolerated with weight loss observed | death ([1]; 3.0% POH diet, chronic): 2/5 | maximum dose tolerated (% diet) ([1]; dietary, data not shown): 2.5% | Toxicity ([1]; perillyl alcohol-fed rats): limited to weight loss | body weight versus controls ([1]; perillyl alcohol-fed, FIG. 8): did not achieve weights similar to controls | CoQ9 labeled from [14C(U)] tyrosine ([2]; 1 mM perillyl alcohol): greatly reduced | activity at 1000 µM ([2]; 1 mM perillyl alcohol, read-out: Cholesterol + Lathosterol synthesis (% of Control)): 107 ± 16.5% | activity at 1000 µM ([2]; 1 mM perillyl alcohol, read-out: Cholesterol synthesis (% of Control)): 26.7 ± 4.7% | activity at 1000 µM ([2]; 1 mM perillyl alcohol, read-out: CoQ9 synthesis (% of Control)): 14.1 ± 4.6% | activity at 1000 µM ([2]; 1 mM perillyl alcohol, read-out: Lathosterol synthesis (% of Control)): 427 ± 130% | recovery of labeled CoQ9 ([2]; cold control medium up to 6 hours post-labeling): labeled CoQ9 could not be observed | block of cholesterol synthesis on continued exposure ([2]; continually grown in 1 mM perillyl alcohol): maintained the block of cholesterol synthesis | conversion of labeled cholesterol back to lathosterol ([2]; reincubated in 1 mM perillyl alcohol after control medium): did not convert labeled cholesterol back to labeled lathosterol | neutral lipid metabolism changes in treated cells ([2]; spot X = CoQ9, Y = cholesterol, Z = lathosterol): inhibition of two spots (X and Y) and the increased accumulation of a third spot (Z) | neutral lipid changes after [14C]squalene labeling ([2]; spot Y = cholesterol, spot Z = lathosterol): inhibition of spot Y and the accumulation of spot Z | reversibility of block of cholesterol synthesis ([2]; switched to control medium, 3 hour chase): Lathosterol was observed to be converted to cholesterol | Primary carcinoma regression (%) [3, 5]: 81% | Secondary carcinoma regression (%) [3, 5]: 0% | Secondary carcinoma regression (tumors regressed / tumors) [3, 5]: 01/1 | Secondary carcinomas/rat [3, 5]: 0.04 | development of secondary carcinomas ([3]; after initial diet assignment): limited the development of secondary carcinomas | Time to Regress (wks) [3]: 3.6 wks | Time to Regress (wks) ([3]; listed as POH): 3.6 ± 0.3 wks | amount of perillyl alcohol needed relative to limonene ([3]; to achieve these regression results): 25% | weight loss ([4]; 0.5 g/kg/treatment oral bid, sesame oil): No weight loss | course of weight loss ([4]; 1.0 gram/kg/treatment oral bid, after day 10): the weight loss leveled off | average body weight lost ([4]; 1.0 gram/kg/treatment oral bid, diluted 1:1 in sesame oil, day 10): 3 g | lethality ([4]; in PEG400, same dose levels): Lethality was observed
